Source: patent US6458872B1, “Benzotriazole UV absorbers having enhanced durability” (Ciba Specialty Chemicals Corporation, priority 1997, dated 2002)
Entries after “also recorded” stand apart in the source; their conditions may differ.

Legend:
[1] = UV absorption data (Example 74); type: physicochemical; conditions: for Absorbance @ 375 nm: 20 mg/l concentrations, not the molar extinction values
Protocol: In the following examples the absorbance at 375 nm is reported for 20 mg/l concentrations. This is not the molar extinction values.

[2] = UV absorption data (Example 74); type: physicochemical; set-up: ε @ λ max: unit not given beside the values
[3] = Yellowness color of solutions in butyl acetate, Macbeth Color-Eye (Example 75); type: physicochemical; conditions: 30 mg/100 mL in butyl acetate; for DE: corresponding Yellowness Index value; for b: yellowness, Macbeth Color-Eye
Protocol: The following examples show the difference in color between some of the instant compounds as measured by a Macbeth Color-Eye instrument at a concentration of 30 mg/100 mL in butyl acetate. […] In the table, the compounds are listed by increasing b value. The instrument measures yellowness as b and DE is the corresponding Yellowness Index value.

[4] = Durability in polycarbonate film, 2000 hours (Example 81); type: physicochemical; conditions: for % Loss / Absorbance (max) Loss units: 2000 hrs; for % Loss / Absorbance (max) Loss units / Absorbance (max) 2000 hrs: BB 2.19 wt %, J 1.81 wt %; for Absorbance (max) 0 hrs: BB 2.19 wt % (352 nm), J 1.81 wt % (344 nm)
Protocol: The durability of representative benzotriazoles in thermoplastic substrates is determined by incorporating various test compounds into solvent cast films of poly(vinyl chloride), polycarbonate and polystyrene resins. The free standing films are mounted into cardboard holders, secured in metal frames and exposed in an Atlas […] […] Loss of UV absorber is determined by monitoring the loss of diagnostic UV absorption as described earlier. Performance is measured by a change in color or the physical integrity of the film. Polycarbonate flake (LEXAN® 145, General Electric) is dissolved in methylene chloride at room temperature along with between 1 and 3% by weight of test benzotriazole, based on the polycarbonate. Films are cast using a calibrated drawdown bar to prepare 1 mil thick film after drying. […] Weather-meter.

[5] = Loss of UV absorber from high solids thermoset acrylic melamine clear coat, Xenon-Arc X180 cycle (Example 78); type: physicochemical; conditions: for durability (low loss rate absorbance values after exposure): in words, summary of the tables of Example 78
From the text: Following the general procedure of Example 77, a number of additional benzotriazole test compounds are incorporated into a high solids thermoset acrylic melamine resin at such concentrations between 1.93 and 3% by weight to give equal molar concentrations of test benzotriazole in equal film thickness, and sufficient to give a starting absorbance of approximately 2.0 absorbance units.
The test discs are exposed in a Xenon-Arc Weather-Ometer at X180 cycle (0.45 Watts/M^2). The initial UV absorbance is measured followed by measurements at roughly 250 hour intervals for the first 2000 hours and every 500 hours thereafter. Each clear coat also contains 1% by weight of a hindered amine light stabilizer, bis-(1-octyloxy-2,2,6,6-tetramethylpiperidin-4-yl) sebacate, as well.

[6] = Loss of UV absorber from high solids thermoset acrylic clear coat, Xenon Arc Weather-Ometer (Example 77); type: physicochemical; conditions: after 1211 hours Xenon arc exposure; clear coat with 1% hindered amine; UV absorber at 5 mmol % by weight
Protocol: To ascertain the effect on thermal durability and loss rate from a high solids thermoset acrylic coating of various 2H-benzotriazole UV absorbers substituted by a variety of electron withdrawing and electron donating groups, the following tests are carried out.
A high solids thermoset acrylic clear coat is prepared by mixing an experimental acrylic polyol resin and hexamethoxymethylmelamine (Resimene® 747, Monsanto) at a solids ratio of 60/40. The dodecylbenzene sulfonic acid catalyst (Nacure® 5225; King Industries) is added at 0.70% by weight. A flow aid Modaflow® (Monsanto) is added at 0.25% by weight to form a model acrylic melamine resin system.
The model clear coat is reduced with xylene to a viscosity of 26-27 second using a Zahn #2 cup and applied via a conventional air spray at 50 psi (3.5 Kg/cm^2) over a 1″×3″ (2.54 cm×7.62 cm) quartz slide. Cure is achieved by baking the slide for 30 minutes at 260° F. (127° C.). The clear coat is stabilized with 1% by weight of a hindered amine light stabilizer, bis-(1-octyloxy-2,2,6,6-tetramethylpiperidin-4-yl)sebacate, (TINUVIN® 123, Ciba-Geigy). The various test benzotriazole UV absorbers are incorporated at the 5 mmol % by weight in the clear coat. The film thickness on the quartz slides range from 1.15 to 1.41 mils (0.029 to 0.036 mm).
The films on the quartz slides are weathered according to the following conditions in Xenon Arc Weather-Ometer with a controlled irradiance at 6500 W, using inner quartz and outer borosilicate S-type filter. The irradiation cycle is as follows: 40 minutes of straight irradiation with no water spray, followed by 20 minutes of light plus front spray, followed by 60 minutes of light irradiation and finally by 60 minutes dart plus rear spray (condensation). The setting is at 0.55 W/M^2 at 340 nm, 1.98 kJ/hour. In the light cycle the black panel temperature is controlled at 70±2° C. The relative humidity in the light cycle is in the range of 50-55% and in the dark cycle 100%. The absorbance of the long wavelength UV band as a function of Xenon arc weathering hours are recorded in the table below.
To follow the loss of UV absorbers from the clear coats, UV spectra are measured initially and after weathering at regular time intervals. The UV spectrophotometer measures absorbance linearly up to 5.5 absorbance units using a reference beam attenuation technique.
This is tested by following the ratio of absorbance of the band at about 300 nm and the band at about 340 nm.
The data in the table below are based on formula A after 1211 hours of exposure of the clear coats containing the test benzotriazole UV absorbers.

[7] = Loss of UV absorber from high solids thermoset acrylic melamine resin, 1002 hours (Example 79); type: physicochemical; conditions: 1002 hours exposure; starting absorbance approximately 2.0
Protocol: Following the general procedure of Example 77, representative benzotriazole test compounds are incorporated into a high solids thermoset acrylic melamine resin at concentrations between 1.93 and 3% by weight to give equal molar concentrations of the test benzotriazole in equal film thickness and sufficient to give a starting absorbance of approximately 2.0 absorbance units. The test samples are exposed as described in Example 77 for 1002 hours.

[8] = after 1253 hours of exposure, starting absorbance approximately 2.0, 1% hindered amine

SMILES | Absorbance @ 375 nm [1] | ε @ λ max [2] | λ max nm [2] | DE [3] | b [3] | Units Absorbance Loss ([5]; after 1264 hours of exposure) | Units Absorbance Loss ([5]; after 1518 hours of exposure) | also measured
CC(C)(C)CC(C)(C)c1ccc(O)c(-n2nc3ccc(C(F)(F)F)cc3n2)c1 [BB, 5-trifluoromethyl-2-(2-hydroxy-5-tert-octylphenyl)-2H-benzotriazole] | 0.33 | 14,000 | 348 nm | 0.27 | 0.20 |  |  | % Loss [4]: 0.6%; Absorbance (max) Loss units [4]: 0.016; Absorbance (max) 0 hrs [4]: 2.654; Absorbance (max) 2000 hrs [4]: 2.638
CC(C)(C)CC(C)(C)c1cc(-n2nc3ccc(S(=O)(=O)c4ccccc4)cc3n2)c(O)c(C(C)(C)c2ccccc2)c1 [Compound U, 5-phenylsulfonyl-2-(2-hydroxy-3-α-cumyl-5-tert-octylphenyl)-2H-benzotriazole] | 0.50 | 17,300 | 362 nm | 4.42 | 3.75 | 0.0944 | 0.1114 | durability (low loss rate absorbance values after exposure) [5]: especially durable
Oc1ccc(C(F)(F)F)cc1-n1nc2ccccc2n1 [EE, 2-(2-hydroxy-5-trifluoromethylphenyl)-2H-benzotriazole] | 0.03 | 20,700 | 328 nm |  |  |  |  | red region absorbance ([1]; in words, upper regions (above 350 nm) of the UV spectra): poor red region absorbance; melting point: 119 to 120 °C
CC(C)(C)c1cc(CCC(=O)O)cc(-n2nc3ccc(C(F)(F)F)cc3n2)c1O [Example 39, 3-(5-Trifluoromethyl-2H-benzotriazol-2-yl)-5-tert-butyl-4-hydroxyhydrocinnamic Acid] |  |  |  |  |  |  |  | melting point: 166 °C
CC(C)(C)CC(C)(C)c1ccc(O)c(-n2nc3ccccc3n2)c1 [J] |  |  |  |  |  |  |  | Units Absorbance Loss [6]: 0.4134; % Loss [4]: 7.5%; Absorbance (max) Loss units [4]: 0.184; Absorbance (max) 0 hrs [4]: 2.454; Absorbance (max) 2000 hrs [4]: 2.270
CC(C)(C)CC(C)(C)c1cc(-n2nc3ccccc3n2)c(O)c(C(C)(C)c2ccccc2)c1 [Q, 2-(2-hydroxy-3-α-cumyl-5-tert-octylphenyl)-2H-benzotriazole] | 0.28 | 16,500 | 345 nm | 0.07 | −0.02 | 0.2293 | 0.2662 | Units of Absorbance Loss [7]: 0.28; Units Absorbance Loss [5, 8]: 0.2351; Units Absorbance Loss ([5]; after 1489 hours of exposure): 0.287; Units Absorbance Loss ([5]; after 2521 hours of exposure): 0.4054; Units Absorbance Loss [6]: 0.2492
CC(C)(C)CC(C)(C)c1cc(-n2nc3ccc(C(F)(F)F)cc3n2)c(O)c(C(C)(C)c2ccccc2)c1 [S, 5-trifluoromethyl-2-(2-hydroxy-3-α-cumyl-5-tert-octylphenyl)-2H-benzotriazole] | 0.35 | 15,000 | 348 nm | 1.28 | 1.05 | 0.0921 | 0.1116 | Units Absorbance Loss [5, 8]: 0.1271; Units Absorbance Loss ([5]; after 1489 hours of exposure): 0.1547; Units Absorbance Loss ([5]; after 2521 hours of exposure): 0.2192; durability (low loss rate absorbance values after exposure) [5]: significantly more durable; also recorded: especially durable
CCCCOc1ccc(-n2nc3ccccc3n2)c(O)c1 [Z, 2-(2-hydroxy-4-n-butoxyphenyl)-2H-benzotriazole] |  |  |  |  |  |  |  | Units of Absorbance Loss [7]: 1.58
